Data on three compounds can be found in PMC5086599 (Viruses, 2016).

What is called IC50 is the point on the concentration scale where inhibition reaches its midpoint.

Each structure is given as a SMILES string. Like-named read-outs stand apart in the source and are kept apart here.

For experiment [1], the system named is HIV-1 K103E mutant virus in Hela P4/R5 cells. The experiment in a line: HIV-1 single cycle replication assay, K103E mutant virus. Type of experiment: cell-based.
The subject of experiment [2] is HIV-1 Y181F mutant virus in Hela P4/R5 cells. The experiment in a line: HIV-1 single cycle replication assay, Y181F mutant virus. In kind it is cell-based.
In experiment [3] the test system is HIV-1 WT virus (HXB2) in Hela P4/R5 cells. Put plainly: HIV-1 single cycle replication assay, WT virus. Type of experiment: cell-based. The following applies: read-out: EC50 against WT virus.
Experiment [4] concerns HIV-1 Y181C mutant virus in Hela P4/R5 cells. The experiment in a line: HIV-1 single cycle replication assay, Y181C mutant virus. In kind it is cell-based.
For experiment [5], the system named is HIV-1 K103N mutant virus in Hela P4/R5 cells. Put plainly: HIV-1 single cycle replication assay, K103N mutant virus. Type of experiment: cell-based.
Experiment [6] has as its system HIV-1 Y181F/Y188F mutant virus in Hela P4/R5 cells. The experiment in a line: HIV-1 single cycle replication assay, Y181F/Y188F mutant virus. In kind it is cell-based.
The subject of experiment [7] is HIV-1 Y188F mutant virus in Hela P4/R5 cells. Put plainly: HIV-1 single cycle replication assay, Y188F mutant virus. Type of experiment: cell-based.
Experiment [8] deals with HIV-1 K103N/Y188F mutant virus in Hela P4/R5 cells. The experiment in a line: HIV-1 single cycle replication assay, K103N/Y188F mutant virus. Type of experiment: cell-based.
Experiment [9] deals with HIV-1 Y188L mutant virus in Hela P4/R5 cells. The experiment in a line: HIV-1 single cycle replication assay, Y188L mutant virus. In kind it is cell-based.
A further experiment deals with HIV-1 WT RT (non-bio-RT). Further details: method as in earlier work. Particulars: reported previously, read-out: Inhibitory potency IC50 versus WT RT (non-biotinylated); cited from earlier work.
For experiment [10], the system named is HIV-1 K103A mutant virus in Hela P4/R5 cells. Put plainly: HIV-1 single cycle replication assay, K103A mutant virus. Type of experiment: cell-based.
Setting [11] is: Human immunodeficiency virus 1, read-out: EC50 against K103E mutant virus.
Setting [12] is: Human immunodeficiency virus 1, read-out: EC50 against Y181F mutant virus.
Setting [13] is: Human immunodeficiency virus 1, HXB2, single-cycle replication, Hela P4/R5 cells, 48 h, mean ± SD.
[14] abbreviates: Human immunodeficiency virus 1, read-out: EC50 against Y181C mutant virus.
Where [15] appears, read: Human immunodeficiency virus 1, read-out: EC50 against K103N mutant virus.
The mark [16] stands for this setting: Human immunodeficiency virus 1, read-out: EC50 against Y181F/Y188F mutant virus.
The mark [17] stands for this setting: Human immunodeficiency virus 1, read-out: EC50 against Y188F mutant virus.
Setting [18] is: Human immunodeficiency virus 1, read-out: EC50 against K103N/Y188F mutant virus.
The mark [19] stands for this setting: Human immunodeficiency virus 1, read-out: EC50 against Y188L mutant virus.
[20] abbreviates: Human immunodeficiency virus 1, read-out: EC50 against K103A mutant virus.

In the case of `O=C1Nc2ccc(Cl)cc2[C@@](C#CC2CC2)(C(F)(F)F)O1` [EFV, efavirenz], the EC50 in experiment [1] (setting [11]) is 0.9 ± 0.3 nM; in [2] (setting [12]), 0.5 ± 0.07 nM; in [3] (setting [13]) it was 1.2 nM; in experiment [4] (setting [14]), 1.4 ± 0.1 nM; in experiment [5] (setting [15]), 69 ± 5.7 nM; in [6] (setting [16]), 0.4 ± 0.1 nM. Further, the EC50 was found to be 0.3 ± 0.05 nM in [7] (setting [17]), 40 ± 8.1 nM in experiment [8] (setting [18]), 639 ± 63 nM in experiment [9] (setting [19]) and 2 ± 0.2 nM in experiment [10] (setting [20]). In experiment [7] (fold more sensitive than WT virus), the “Y188F mutant virus more sensitive to inhibition than WT virus” value is listed as ~ 4 fold. Also, in the experiment on HIV-1 WT RT (non-bio-RT), the IC50 was 0.42 nM.

In the case of `CC(C)Nc1cccnc1N1CCN(C(=O)c2cc3cc(NS(C)(=O)=O)ccc3[nH]2)CC1` [DLV, delavirdine], the EC50 in experiment [1] (setting [11]) was 64 ± 7 nM; in experiment [2] (setting [12]), 8.6 ± 1.3 nM; in [3] (Human immunodeficiency virus 1, HXB2, 48 h), 26 ± 7 nM; in experiment [4] (setting [14]), 1150 ± 301 nM; in experiment [5] (setting [15]), 2600 ± 346 nM; in experiment [6] (setting [16]), 4.1 ± 0.12 nM. The EC50 in experiment [7] (setting [17]) worked out at 14 ± 4 nM; in experiment [8] (setting [18]), 1500 ± 43 nM; in [9] (setting [19]), 913 ± 90 nM; in experiment [10] (setting [20]), 38 ± 12 nM.

As to `Cc1ccnc2c1NC(=O)c1cccnc1N2C1CC1` [NVP, nevirapine], the EC50 in experiment [1] (Human immunodeficiency virus 1, single-cycle replication, Hela P4/R5 cells, mean ± SD, read-out: EC50 against K103E mutant virus) came to 65 ± 27 nM; in experiment [2] (Human immunodeficiency virus 1, single-cycle replication, Hela P4/R5 cells, mean ± SD, read-out: EC50 against Y181F mutant virus), 37 ± 7 nM; in experiment [3] (setting [13]), 95 ± 6 nM; in [4] (Human immunodeficiency virus 1, single-cycle replication, Hela P4/R5 cells, mean ± SD, read-out: EC50 against Y181C mutant virus), 2270 ± 197 nM; in experiment [5] (Human immunodeficiency virus 1, single-cycle replication, Hela P4/R5 cells, mean ± SD, read-out: EC50 against K103N mutant virus) it was 5080 ± 1690 nM; in experiment [6] (Human immunodeficiency virus 1, single-cycle replication, Hela P4/R5 cells, mean ± SD, read-out: EC50 against Y181F/Y188F mutant virus), 34 ± 2.5 nM. Besides, the EC50 was 62 ± 11 nM in [7] (Human immunodeficiency virus 1, single-cycle replication, Hela P4/R5 cells, mean ± SD, read-out: EC50 against Y188F mutant virus); 14500 nM in experiment [8] (Human immunodeficiency virus 1, single-cycle replication, Hela P4/R5 cells, mean ± SD, read-out: EC50 against K103N/Y188F mutant virus); over 25000 nM in experiment [9] (Human immunodeficiency virus 1, single-cycle replication, Hela P4/R5 cells, mean ± SD, read-out: EC50 against Y188L mutant virus); 216 ± 51 nM in [10] (Human immunodeficiency virus 1, single-cycle replication, Hela P4/R5 cells, mean ± SD, read-out: EC50 against K103A mutant virus). In addition, in the experiment with HIV-1 WT RT (non-bio-RT), the IC50 is 137 nM.
